One test has as its target T1, GABAB receptor (Rattus norvegicus, UniProt Q9Z0U4).
T1 construct: 12 μm coronal sections were collected from an area ranging from approximately +4.2 mm to +2.3 mm anterior to Bregma; from tissue; host or cells: rat brain cryosections, medial prefrontal cortex (prelimbic and infralimbic)
The test is described as follows: Ex vivo autoradiography, GABAB receptor saturation binding ([3H]CGP54626), medial prefrontal cortex. An excerpt: (§1) Rats used in ex vivo autoradiography (EVA) experiments were randomly assigned to one of four experimental groups characterized by either subchronic saline or PCP (as described above) along with either vehicle or vortioxetine-infused food (1.8 g vortioxetine/kg food weight, as described in the attentional set shifting task). On day 8 of PCP withdrawal, rats were anesthetized using CO2 and killed by decapitation. Brains were quickly and gently removed from the skull, flash frozen on powdered dry ice, and stored at -20°C until sectioning. Later, 12 μm coronal sections were collected from an area ranging from approximately +4.2 mm to +2.3 mm anterior to Bregma ([Paxinos and Watson, 1998]) using a cryostat (MicroM, Germany) and were thaw-mounted on glass microscope slides. This range of coronal slices was chosen in order to study the prelimbic and infralimbic subregions of the medial prefrontal cortex, given the importance of these regions in tests of executive function such as the attentional set shifting task ([Ng et al., 2007]). After the tissue mounted on the microscope slides had dried thoroughly (in order to reduce damage from freezing), slides were packed into slide boxes with desiccator pellets, and stored at -20°C for use in EVA saturation binding and competition experiments.
(§2) Each of the EVA procedures used in this study are variations on a similar theme. On the day of an experiment, slide-boxes were defrosted under a constant stream of air at room temperature until the boxes were dry and equilibrated with the environment in terms of temperature. This step was undertaken in order to ensure brain tissue was not damaged by frosting due to a sudden change in humidity. Prior to any binding experiments, slides were preincubated in the appropriate preincubation buffer and dried at room temperature. Subsequently, tissue was incubated in an assay buffer containing a radioligand appropriate for the receptor of interest, then rinsed in assay buffer, and dried overnight in a vacuum desiccator. Specific information on the contents of the preincubation buffers, assay buffers and other assay conditions are listed in Table 2. Finally, slides were opposed to a tritium-sensitive phosphor screen (Fuji imaging plate, GE Healthcare, Pittsburgh, PA, United States) for 5 days before being read in a phosphorimager (Typhoon FLA7000, GE Healthcare). Analysis methods are listed below under statistical analyses.
(§3) In saturation binding experiments, the concentration of the relevant radioligand in the assay buffer was systematically varied in order to determine the KD and Bmax of the receptor in question. At each radioligand concentration, the non-specific binding was determined on a separate slide by including a high concentration of a non-radioactive competitor ligand in the assay buffer along with the radioligand. For GABAA receptor saturation binding experiments, [^3H]muscimol was examined in quarter log steps ranging from 0.56 to 300 nM. For GABAB receptor saturation binding experiments, [^3H]CGP54626 was examined in quarter log steps ranging from 0.17 to 100 nM.
For saturation binding studies, the primary dependent measures were pKD and Bmax. First, a standard curve was generated by measuring optical intensity from a slide of tritium standards (American Radiolabeled Chemicals, St. Louis, MO, United States) included in the slide cassette during exposure. A linear regression was performed to determine the relationship between intensity and bound radioactivity (measured on the standards in units of μCi/g). Next, average intensity values from the non-specific bound condition for each concentration of radioligand was subtracted from intensity values from the total bound condition to produce a measure of specific binding for each radioligand concentration. These optical intensity values were transformed into bound radioactivity (expressed as nCi/mg) measurements by interpolation from the standard curve noted above. […]

The next test has as its system GABAA receptor. The test is described as follows: Ex vivo autoradiography, GABAA receptor saturation binding ([3H]muscimol), medial prefrontal cortex. More on the design: species or system rat. As to conditions: PCP/vortioxetine group vs all other treatment groups.
Text: as §1, §2, §3
For saturation binding studies, the primary dependent measures were pKD and Bmax. […] A linear regression was performed to determine the relationship between intensity and bound radioactivity (measured on the standards in units of μCi/g). […] These optical intensity values were transformed into bound radioactivity (expressed as nCi/mg) measurements by interpolation from the standard curve noted above. […]

Test [1] deals with 5-HT3 receptor. The test is described as follows: 5-HT3 receptor occupancy (literature). The format is in vivo, rat. As to conditions: 0.22 g/kg subchronic dose; estimated based on known SERT:5-HT3 receptor occupancy relationships; ref Leiser et al., 2014.
The next test deals with SERT. The following applies: cited from earlier work.
The test system of test [2] is 5-HT3 receptor. As to conditions: 2014, cited from earlier work.
Another test has as its system 5-HT1B receptors. The following applies: 2014, cited from earlier work.
For the next test, the system named is 5-HT1A receptors. As to conditions: 2014, cited from earlier work.
In another test the test system is 5-HT7 receptors. As to conditions: 2014, cited from earlier work.
A further test relates to rodent 5-HT1A receptors. As to conditions: rodent vs human; no reference given; cited from earlier work.
The next test concerns rodent 5-HT7 receptors. As to conditions: rodent vs human; no reference given; cited from earlier work.
Setting [3] is: 10 mg/kg 1 h s.c., full occupancy, ref Leiser et al.
[4] abbreviates: subchronic dose used in the mouse OR and object placement tasks, ref Wallace et al., Waller et al., 2017.
Where [5] appears, read: 10 mg/kg 1 h s.c., ref Leiser et al.
Where [6] appears, read: subchronic dose used in the mouse OR and object placement tasks, expected, ref Wallace et al., Waller et al., 2017.

Read-outs that look alike come from different tables or passages of the source.

T1 sequence (Q9Z0U4 17-960 limits assumed): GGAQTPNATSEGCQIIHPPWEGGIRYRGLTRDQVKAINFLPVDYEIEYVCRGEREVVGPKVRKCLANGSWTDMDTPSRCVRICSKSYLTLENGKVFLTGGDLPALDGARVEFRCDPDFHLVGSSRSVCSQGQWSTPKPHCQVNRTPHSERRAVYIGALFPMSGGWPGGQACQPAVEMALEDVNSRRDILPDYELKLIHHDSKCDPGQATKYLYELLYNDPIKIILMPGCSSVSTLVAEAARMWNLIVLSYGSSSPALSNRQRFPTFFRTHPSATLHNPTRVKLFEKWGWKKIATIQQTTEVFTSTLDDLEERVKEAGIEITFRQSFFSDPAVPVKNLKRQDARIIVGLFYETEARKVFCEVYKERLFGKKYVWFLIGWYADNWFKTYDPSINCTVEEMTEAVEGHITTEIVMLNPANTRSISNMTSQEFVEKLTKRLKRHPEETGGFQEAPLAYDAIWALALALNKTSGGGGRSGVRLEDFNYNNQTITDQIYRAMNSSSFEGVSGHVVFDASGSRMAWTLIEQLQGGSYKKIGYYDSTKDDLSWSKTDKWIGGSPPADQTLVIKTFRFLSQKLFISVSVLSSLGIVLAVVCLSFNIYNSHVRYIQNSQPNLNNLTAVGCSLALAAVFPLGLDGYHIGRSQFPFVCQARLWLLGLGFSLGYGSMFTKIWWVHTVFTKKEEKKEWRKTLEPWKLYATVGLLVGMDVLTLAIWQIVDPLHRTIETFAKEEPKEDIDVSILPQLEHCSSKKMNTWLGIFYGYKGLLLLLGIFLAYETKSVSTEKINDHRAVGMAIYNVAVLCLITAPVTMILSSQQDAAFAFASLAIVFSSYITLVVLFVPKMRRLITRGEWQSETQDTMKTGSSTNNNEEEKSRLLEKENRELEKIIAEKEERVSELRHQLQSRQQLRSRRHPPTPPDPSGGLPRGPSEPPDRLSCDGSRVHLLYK
T1 sequence (O88871 41-940 partner): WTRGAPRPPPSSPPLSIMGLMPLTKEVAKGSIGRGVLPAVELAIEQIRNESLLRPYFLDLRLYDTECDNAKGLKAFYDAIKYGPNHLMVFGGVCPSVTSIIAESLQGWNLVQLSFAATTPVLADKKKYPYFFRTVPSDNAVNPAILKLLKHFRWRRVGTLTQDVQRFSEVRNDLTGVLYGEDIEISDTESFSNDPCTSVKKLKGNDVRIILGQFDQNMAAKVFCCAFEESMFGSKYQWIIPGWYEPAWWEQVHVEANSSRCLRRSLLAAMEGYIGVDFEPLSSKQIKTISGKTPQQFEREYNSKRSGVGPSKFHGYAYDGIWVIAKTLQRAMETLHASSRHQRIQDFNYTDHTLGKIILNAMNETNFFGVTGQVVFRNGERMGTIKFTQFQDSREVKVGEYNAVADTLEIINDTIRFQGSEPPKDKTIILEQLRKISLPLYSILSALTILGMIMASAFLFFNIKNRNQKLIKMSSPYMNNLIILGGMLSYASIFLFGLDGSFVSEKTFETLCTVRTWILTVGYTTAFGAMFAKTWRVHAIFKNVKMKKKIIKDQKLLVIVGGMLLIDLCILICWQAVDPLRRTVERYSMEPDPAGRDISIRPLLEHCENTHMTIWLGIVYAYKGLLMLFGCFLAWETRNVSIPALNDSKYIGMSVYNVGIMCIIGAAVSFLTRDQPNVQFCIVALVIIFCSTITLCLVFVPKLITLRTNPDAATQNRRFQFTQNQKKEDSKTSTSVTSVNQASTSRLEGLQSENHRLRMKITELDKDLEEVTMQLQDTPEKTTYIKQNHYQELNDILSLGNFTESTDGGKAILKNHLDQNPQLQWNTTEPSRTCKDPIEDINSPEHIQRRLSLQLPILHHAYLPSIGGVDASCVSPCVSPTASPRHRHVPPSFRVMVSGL

Regarding `Cl.c1ccc(C2(N3CCCCC3)CCCCC2)cc1` [PCP, 1-(1-phenylcyclohexyl)-piperidine hydrochloride], the “effect of treatment on [3H]CGP54626 Bmax (GABAB receptor)” value at GABAB receptor (subPCP vs saline/vehicle group, p < 0.05) is reported as “significant reductions”.

On to `Cc1ccc(Sc2ccccc2N2CCNCC2)c(C)c1` [vortioxetine], for which the “effect of treatment on [3H]muscimol affinity for the GABAA receptor” value with GABAA receptor is on record as “small but significant reduction”. Besides, the “[3H]CGP54626 Bmax (GABAB receptor), PCP/vortioxetine vs PCP/vehicle” value at GABAB receptor (subchronic vortioxetine combined with subPCP) is listed as “no significant differences”. Moreover, the “occupancy at 5-HT3 receptors” value in the test on 5-HT3 receptor [1] is recorded as “full occupancy”; with 5-HT3 receptor [2] (setting [3]), no less than 80%; in the test on 5-HT3 receptor [2] (setting [4]), “full occupancy”. Further, the “occupancy at the SERT” value is recorded as 60–65% in the test with SERT (1 mg/kg acute dose, ref Leiser et al., 2014) and “approximately 50%” in the test on SERT (0.22 g/kg subchronic dose (food), ref Waller et al., 2017). For the same compound, the “occupancy at SERT” value in the test on SERT (10 mg/kg 1 h s.c., full occupancy, ref Leiser et al., 2014) was no less than 80%; with SERT (subchronic dose used in the mouse OR and object placement tasks, ref Wallace et al., 2014, Waller et al., 2017), “full occupancy”. Moreover, the SERT occupancy in the test with SERT (the vortioxetine doses used, ref Stenkrona et al., 2013, Leiser et al., 2014) is 50–90%. For the same compound, the “occupancy at the 5-HT3 receptor” value in the test with 5-HT3 receptor [2] (1 mg/kg acute dose, ref Leiser et al.) is listed as “full occupancy”. In addition, the “occupancy at 5-HT1B receptors” value with 5-HT1B receptors (setting [3]) is no less than 80%; in the test with 5-HT1B receptors (setting [4]) it was “approximately 50%”. For the same compound, the “occupancy at 5-HT1A receptors” value in the test on 5-HT1A receptors (setting [5]) is “≈ 40%”; in the test on 5-HT1A receptors (setting [6]), “negligible”. Moreover, the “occupancy at 5-HT7 receptors” value is “≈ 40%” in the test with 5-HT7 receptors (setting [5]) and “negligible” with 5-HT7 receptors (setting [6]). Besides, in the test with rodent 5-HT1A receptors, the “lesser affinity at rodent 5-HT1A receptors by comparison to humans” value is “approximately 10 fold”. Also, the “lesser affinity at rodent 5-HT7 receptors by comparison to humans” value with rodent 5-HT7 receptors is “approximately 10 fold”.

The values are drawn from publication PMC5845537 (Frontiers in Pharmacology, 2018).
